Measured values reported in patent US9233111B2, “Pyrrolo pyrimidine derivatives” (NOVARTIS AG, priority 2011, dated 2016).

Molecular target: full-length human recombinant BTK (Homo sapiens (Human), UniProt Q06187)
Test: Inhibition of Btk enzymatic activity (biochemical enzyme assay, Caliper)
Details: 30° C., 60 minutes
Protocol: The inhibitory activity of the present compounds against Btk was assessed in a biochemical enzyme assay. Assay plates in 384 well format were prepared with 8-point serial dilutions for the test compounds on a Thermo CatX workstation equipped with a Innovadyne Nanodrop Express. The assay plates were prepared by addition of 50 nl per well of compound solution in 90% DMSO. The kinase reactions were started by stepwise addition of 4.5 μl per well of peptide/ATP-solution (4 μM FITC-Ahx-[…]-NH2, 164 μM ATP) in kinase buffer (50 mM HEPES, pH 7.5, 1 mM DTT, 0.02% Tween20, 0.02% BSA, 0.6% DMSO, 10 mM beta-glycerophosphate, and 10 μM sodium orthovanadate, 18 mM MgCl2, 1 mM MnCl2) and 4.5 μl per well of enzyme solution (6.4 nM full-length human recombinant BTK) in kinase buffer. Kinase reactions were incubated at 30° C. for 60 minutes and subsequently terminated by addition of 16 μl per well of stop solution (100 mM HEPES pH 7.5, 5% DMSO, 0.1% Caliper coating reagent, 10 mM EDTA, and 0.015% Brij35). Kinase reactions were analyzed on a Caliper LC3000 workstation by separating phosphorylated and unphosphorylated peptides and kinase activities were calculated from the amounts of newly formed phospho-peptide. Inhibition data were calculated by comparison to control reactions without enzyme (100% inhibition) and without inhibitors (0% inhibition). The concentration of inhibitor required for 50% inhibition (IC50) was calculated from the inhibition in response to inhibitor concentrations.

Chain of full-length human recombinant BTK (Q06187 whole entry): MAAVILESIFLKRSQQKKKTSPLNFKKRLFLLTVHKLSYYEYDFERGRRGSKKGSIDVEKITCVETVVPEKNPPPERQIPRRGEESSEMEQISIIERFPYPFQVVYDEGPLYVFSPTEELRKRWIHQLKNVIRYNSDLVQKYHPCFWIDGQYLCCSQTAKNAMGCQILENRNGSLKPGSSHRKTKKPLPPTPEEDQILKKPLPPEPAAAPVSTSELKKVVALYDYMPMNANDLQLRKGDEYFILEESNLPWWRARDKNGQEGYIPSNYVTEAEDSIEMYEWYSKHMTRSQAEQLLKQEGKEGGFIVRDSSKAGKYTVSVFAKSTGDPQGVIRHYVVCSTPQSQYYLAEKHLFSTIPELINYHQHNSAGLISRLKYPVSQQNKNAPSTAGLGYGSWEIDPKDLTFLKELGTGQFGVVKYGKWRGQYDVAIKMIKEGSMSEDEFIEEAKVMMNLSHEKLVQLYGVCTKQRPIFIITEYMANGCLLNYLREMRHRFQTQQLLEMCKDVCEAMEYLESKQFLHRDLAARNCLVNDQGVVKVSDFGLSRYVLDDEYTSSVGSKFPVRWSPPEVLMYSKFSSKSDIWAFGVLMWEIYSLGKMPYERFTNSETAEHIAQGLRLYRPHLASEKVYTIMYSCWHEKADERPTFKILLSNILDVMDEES

IC50 | Compound
14 nM | CC(=O)OCC(=O)N1CC=C(c2cc3c(-c4cc(F)cc(NC(=O)c5ccc(S(F)(F)(F)(F)F)cc5)c4C)ncnc3[nH]2)CC1 [Example 35, Acetic acid 2-[4-(4-{5-fluoro-2-methyl-3-[4-(pentafluoro-sulfanyl)-benzoylamino]-phenyl}-7H-pyrrolo[2,3-d]pyrimidin-6-yl)-3,6-dihydro-2H-pyridin-1-yl]-2-oxo-ethyl ester]
4 nM | Cc1c(NC(=O)c2ccc(S(F)(F)(F)(F)F)cc2)cc(F)cc1-c1ncnc2[nH]c(C3=CCN(C(=O)CO)CC3)cc12 [Example 36, N-(5-Fluoro-3-{6-[1-(2-hydroxy-acetyl)-1,2,3,6-tetrahydro-pyridin-4-yl]-7H-pyrrolo[2,3-d]pyrimidin-4-yl}-2-methyl-phenyl)-4-(pentafluoro-sulfanyl)-benzamide]
26 nM | CN(C)C(=O)N1CC=C(c2cc3c(-c4cccc(NC(=O)c5ccc(C(C)(C)C)cc5)c4CO)ncnc3[nH]2)CC1 [Example 37, 4-{4-[3-(4-tert-Butyl-benzoylamino)-2-hydroxymethyl-phenyl]-7H-pyrrolo[2,3-d]pyrimidin-6-yl}-3,6-dihydro-2H-pyridine-1-carboxylic acid dimethylamide]
19 nM | Cc1c(NC(=O)c2ccc(C(C)(C)C)cc2)cc(F)cc1-c1ncnc2[nH]c(C3=CCNCC3)cc12 [Example 40, 4-tert-Butyl-N-{5-fluoro-2-methyl-3-[6-(1,2,3,6-tetrahydro-pyridin-4-yl)-7H-pyrrolo[2,3-d]pyrimidin-4-yl]-phenyl}-benzamide]
23 nM | Cc1c(NC(=O)c2ccc(C(C)(C)C)cc2)cc(F)cc1-c1ncnc2[nH]c(C3=CCN(C(=O)N(C)C)CC3)cc12 [Example 41, 4-{4-[3-(4-tert-Butyl-benzoylamino)-5-fluoro-2-methyl-phenyl]-7H-pyrrolo[2,3-d]pyrimidin-6-yl}-3,6-dihydro-2H-pyridine-1-carboxylic acid dimethylamide]
30 nM | Cc1c(NC(=O)c2ccc(C(C)(C)C)cc2)cc(F)cc1-c1ncnc2[nH]c(C3=CCN(S(C)(=O)=O)CC3)cc12 [Example 42, 4-tert-Butyl-N-{5-fluoro-3-[6-(1-methanesulfonyl-1,2,3,6-tetrahydro-pyridin-4-yl)-7H-pyrrolo[2,3-d]pyrimidin-4-yl]-2-methyl-phenyl}-benzamide]
140 nM | Cc1c(NC(=O)c2ccc(C(C)(C)C)cc2)cc(F)cc1-c1ncnc2[nH]c(C3=CCN(S(=O)(=O)N(C)C)CC3)cc12 [Example 43, 4-tert-Butyl-N-{3-[6 (1 dimethylsulfamoyl-1,2,3,6-tetrahydro-pyridin-4-yl)-7H-pyrrolo[2,3-d]pyrimidin-4-yl]-5-fluoro-2-methyl-phenyl}-benzamide]
17 nM | Cc1c(NC(=O)c2ccc(C(C)(C)C)cc2)cccc1-c1ncnc2[nH]c(C3=CCN(S(C)(=O)=O)CC3)cc12 [Example 44, 4-tert-Butyl-N-{3-[6-(1 methanesulfonyl-1,2,3,6-tetrahydro-pyridin-4-yl)-7H-pyrrolo[2,3-d]pyrimidin-4-yl]-2-methyl-phenyl}-benzamide]
8 nM | CN(C)C(=O)N1CC=C(c2cc3c(-c4cccc(N5CCc6cc(C(C)(C)C)ccc6C5=O)c4CO)ncnc3[nH]2)CC1 [Example 45, 4-{4-[3-(6-tert-Butyl-1-oxo-3,4-dihydro-1H-isoquinolin-2-yl)-2-hydroxymethyl-phenyl]-7H-pyrrolo[2,3-d]pyrimidin-6-yl}-3,6-dihydro-2H-pyridine-1-carboxylic acid dimethylamide]
17 nM | CN(C)C(=O)N1CC=C(c2cc3c(-c4cccc(N5CCc6cc(C7CC7)ccc6C5=O)c4CO)ncnc3[nH]2)CC1 [Example 46, 4-{4-[3-(6-Cyclopropyl-1-oxo-3,4-dihydro-1H-isoquinolin-2-yl)-2-hydroxymethyl-phenyl]-7H-pyrrolo[2,3-d]pyrimidin-6-yl}-3,6-dihydro-2H-pyridine-1-carboxylic acid dimethylamide]
2 nM | CN(C)C(=O)N1CC=C(c2cc3c(-c4cccc(N5CCc6cc(C(C)(C)O)ccc6C5=O)c4CO)ncnc3[nH]2)CC1 [Example 47, 4-(4-{2-Hydroxymethyl-3-[6-(1-hydroxy-1-methyl-ethyl)-1-oxo-3,4-dihydro-1H-isoquinolin-2-yl]-phenyl}-7H-pyrrolo[2,3-d]pyrimidin-6-yl)-3,6-dihydro-2H-pyridine-1-carboxylic acid dimethylamide]
7 nM | CC(C)(C)c1ccc(C(=O)Nc2cccc(-c3ncnc4[nH]c(C5=CCOCC5)cc34)c2CO)cc1 [Example 48, 4-tert-Butyl-N-{3-[6-(3,6-dihydro-2H-pyran-4-yl)-7H-pyrrolo[2,3-d]pyrimidin-4-yl]-2-hydroxymethyl-phenyl}-benzamide]
99 nM | Cc1c(NC(=O)c2ccc(C(C)(C)C)cc2)cc(F)cc1-c1ncnc2[nH]c(C3=CCOCC3)cc12 [Example 49, 4-tert-Butyl-N-{3-[6-(3,6-dihydro-2H-pyran-4-yl)-7H-pyrrolo[2,3-d]pyrimidin-4-yl]-5-fluoro-2-methyl-phenyl}-benzamide]
47 nM | Cc1c(NC(=O)c2ccc(N(C)C)cc2)cc(F)cc1-c1ncnc2[nH]c(C3=CCOCC3)cc12 [Example 50, N-{3-[6-(3,6-Dihydro-2H-pyran-4-yl)-7H-pyrrolo[2,3-d]pyrimidin-4-yl]-5-fluoro-2-methyl-phenyl}-4-dimethylamino-benzamide]
47 nM | Cc1c(NC(=O)c2ccc(C(C)(C)C)cc2)cccc1-c1ncnc2[nH]c(C3=CCSCC3)cc12 [Example 51, 4-tert-Butyl-N-{3-[6-(3,6-dihydro-2H-thiopyran-4-yl)-7H-pyrrolo[2,3-d]pyrimidin-4-yl]-2-methyl-phenyl}-benzamide]
24 nM | Cc1c(NC(=O)c2ccc(C(C)(C)C)cc2)cccc1-c1ncnc2[nH]c(C3=CC[S+]([O-])CC3)cc12 (centres unmarked) [Example 52, 4-tert-Butyl-N-{2-methyl-3-[6-(3,6-dihydro-1-oxido-2H-thiopyran-4-yl)-7H-pyrrolo[2,3-d]pyrimidin-4-yl]-phenyl}-benzamide]
64 nM | Cc1c(NC(=O)c2ccc(C(C)(C)C)cc2)cccc1-c1ncnc2[nH]c(C3=CCS(=O)(=O)CC3)cc12 [Example 53, 4-tert-Butyl-N-{3-[6-(3,6-dihydro-1,1-dioxido-2H-thiopyran-4-yl)-7H-pyrrolo[2,3-d]pyrimidin-4-yl]-2-methyl-phenyl}-benzamide]
24 nM | CC(C)(C)c1ccc(C(=O)Nc2cccc(-c3ncnc4[nH]c(C5=CCC6(CC5)OCCO6)cc34)c2CO)cc1 [Example 54, 4-tert-Butyl-N-{3-[6-(1,4-dioxa-spiro[4.5]dec-7-en-8-yl)-7H-pyrrolo[2,3-d]pyrimidin-4-yl]-2-hydroxymethyl-phenyl}-benzamide]
4 nM | CC(C)(C)c1ccc(C(=O)Nc2cccc(-c3ncnc4[nH]c(C5=CCC(O)CC5)cc34)c2CO)cc1 (centres unmarked) [Example 55, 4-tert-Butyl-N-{3-[6 (4 hydroxy-cyclohex-1-enyl)-7H-pyrrolo[2,3-d]pyrimidin-4-yl]-2-hydroxymethyl-phenyl}-benzamide]
2 nM | CN(C)C1CC=C(c2cc3c(-c4cccc(NC(=O)c5ccc(C(C)(C)C)cc5)c4CO)ncnc3[nH]2)CC1 (centres unmarked) [Example 56, 4-tert-Butyl-N-{3-[6 (4 dimethylamino-cyclohex-1-enyl)-7H-pyrrolo[2,3-d]pyrimidin-4-yl]-2-hydroxymethyl-phenyl}-benzamide]
